Measurements: patent US20120295845A1, “IMIDAZO-PYRAZOLES AS GPR119 INHIBITORS” (Pfizer Inc, priority 2009, published 2012)
Several values for one entry are separate records, joined by “and”; a condition that tells them apart may be missing. Equal values may be shown once.

Columns and labels:
human GPR119 [1] = target: T1, human GPR119 (Homo sapiens, UniProt Q8TDV5); assay: cAMP functional assay (HTRF, hGPR119 HEK-CRE beta-lactamase cells); type: cell-based; conditions: one value per run; for EC50: hGPR119 HEK-CRE beta-lactamase cells, HTRF cAMP, 30 min incubation with IBMX; for Intrinsic Activity* (cAMP) / Emax: percent of maximal activity relative to standard GPR119 agonist (WO2005121121) at 10 μM; for Emax: read-out: Intrinsic Activity* (cAMP)
T1 construct: host or cells: HEK293-CRE beta-lactamase cells
T1 sequence (Q8TDV5 1-335): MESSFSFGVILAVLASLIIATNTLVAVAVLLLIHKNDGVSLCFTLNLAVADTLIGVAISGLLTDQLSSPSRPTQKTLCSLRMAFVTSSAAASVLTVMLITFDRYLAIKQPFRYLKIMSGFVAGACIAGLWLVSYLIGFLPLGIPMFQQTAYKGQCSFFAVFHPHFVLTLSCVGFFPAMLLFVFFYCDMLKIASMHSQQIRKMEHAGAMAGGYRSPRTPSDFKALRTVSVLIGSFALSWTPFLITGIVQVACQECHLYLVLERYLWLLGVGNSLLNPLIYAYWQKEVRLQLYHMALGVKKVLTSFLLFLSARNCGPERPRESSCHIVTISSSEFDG
Experimental: GPR119 agonist activity was also determined with a cell-based assay utilizing an
HTRF (Homogeneous Time-Resolved Fluorescence) cAMP detection kit (cAMP dynamic 2 Assay Kit; Cis Bio cat # 62AM4PEC) that measures cAMP levels in the cell. The method is a competitive immunoassay between native cAMP produced by the cells and the cAMP labeled with the dye d2. The tracer binding is visualized by a Mab anti-cAMP labeled with Cryptate. The specific signal (Le. energy transfer) is inversely proportional to the concentration of cAMP in either standard or sample.
Specifically, hGPR119 HEK-CRE beta-lactamase cells (Invitrogen 2.5×10^7/mL; the same cell line used in the beta-lactamase assay described above) are removed from cryopreservation and diluted in growth medium (Dulbecco's modified Eagle medium high glucose (DMEM; Gibco Cat # 11995-065), 1% charcoal dextran treated fetal bovine serum (CD serum; HyClone Cat # SH30068.03), lx MEM Nonessential amino acids (Gibco Cat # 15630-080) and 25 mM HEPES pH 7.0 (Gibco Cat # 15630-080)). The cell concentration was adjusted to 1.5×10^5 cells/mL and 30 mLs of this suspension was added to a T-175 flask and incubated at 37 degrees Celsius in a humidified environment in 5% carbon dioxide. After 16 hours (overnight), the cells were removed from the T-175 flask (by rapping the side of the flask), centrifuged at 800×g and then re-suspended in assay medium (1×HBSS+CaCl2+MgCl2 (Gibco Cat # 14025-092) and 25 mM HEPES pH 7.0 (Gibco Cat # 15630-080)). The cell concentration was adjusted to 6.25×10^5 cells/mL with assay medium and 8 μl of this cell suspension (5000 cells) was added to each well of a white Greiner 384-well, low-volume assay plate (VWR cat # 82051-458).
Varying concentrations of each compound to be tested were diluted in assay buffer containing 3-isobutyl-1-methylxanthin (1BMX; Sigma cat #15879) and added to the assay plate weds in a volume of 2 microL (final BMX concentration was 400 microM and final DMSO concentration was 0.58%). Following 30 minutes incubation at room temperature, 5 microL of labeled d2 cAMP and 5 microL of anti-cAMP antibody (both diluted 1:20 in cell lysis buffer; as described in the manufacturers assay protocol) were added to each well of the assay plate. The plates were then incubated at room temperature and after 60 minutes, changes in the HTRF signal were read with an Envision 2104 multilabel plate reader using excitation of 330 nm and emissions of 615 and 665 nm. Raw data were converted to nM cAMP by interpolation from a cAMP standard curve (as described in the manufacturer's assay protocol) and EC50 determinations were made from an agonist-response curves analyzed with a curve fitting program using a 4-paramter logistic dose response equation.

human GPR119 [2] = target: T2, human GPR119 (Homo sapiens, UniProt Q8TDV5); assay: beta-arrestin functional assay (DiscoverX PathHunter U2OS hGPR119 beta-arrestin cells); type: cell-based; conditions: for EC50: read-out: Human B-arrestin Functional EC50; for Emax: U2OS, read-out: Intrinsic Activity* (B-arrestin)
T2 construct: host or cells: U2OS
Experimental: GPR119 agonist activity was also determined with a cell-based assay utilizing DiscoverX PathHunter β-arrestin cell assay technology and their U2OS hGPR119 β-arrestin cell line (DiscoverX Cat # 93-0356C3). In this assay, agonist activation is determined by measuring agonist-induced interaction of β-arrestin with activated GPR119. A small, 42 amino acid enzyme fragment, called ProLink was appended to the C-terminus of GPR119. Arrestin was fused to the larger enzyme fragment, termed EA (Enzyme Acceptor). Activation of GPR119 stimulates binding of arrestin and forces the complementation of the two enzyme fragments, resulting in formation of a functional β-galactosidase enzyme capable of hydrolyzing substrate and generating a chemiluminescent signal.
Specifically, U2OS hGPR119 β-arrestin cells (DiscoverX 1×10^7/mL) are removed from cryopreservation and diluted in growth medium (Minimum essential medium (MEM; Gibco Cat # 11095-080), 10% heat inactivated fetal bovine serum (HIFBS; Sigma Cat # F4135-100), […] sodium pyruvate (Sigma Cat # S8636), 500 microg/mL G418 (Sigma Cat # G8168) and 250 microg/mL Hygromycin B (Invitrogen Cat # 10687-010). The cell concentration was adjusted to 1.66×10^5 cells/mL and 30 mLs of this suspension was added to a T-175 flask and incubated at 37 degrees Celsius in a humidified environment in 5% carbon dioxide. After 48 hours, the cells were removed from the T-175 flask with enzyme-free cell dissociation buffer (Gibco cat # 13151-014), centrifuged at 800×g and then re-suspended in plating medium (Opti-MEM I (Invitrogen/BRL Cat # 31985-070) and 2% charcoal dextran treated fetal bovine serum (CD serum; HyClone Cat # SH30068.03). The cell concentration was adjusted to 2.5×10^5 cells/mL with plating medium and 10 microL of this cell suspension (2500 cells) was added to each well of a white Greiner 384-well low volume assay plate (VWR cat # 82051-458) and the plates were incubated at 37 degrees Celsius in a humidified environment in 5% carbon dioxide.
After 16 hours (overnight) the assay plates were removed from the incubator and varying concentrations of each compound to be tested (diluted in assay buffer (1×HBSS+CaCl2+MgCl2 (Gibco Cat # 14025-092), 20 mM HEPES pH 7.0 (Gibco Cat # 15630-080) and 0.1% BSA (Sigma Cat # A9576)) were added to the assay plate wells in a volume of 2.5 microL (final DMSO concentration was 0.5%). After a 90 minute incubation at 37 degrees Celsius in a humidified environment in 5% carbon dioxide, 7.5 microL of Galacton Star β-galactosidase substrate (Path Hunter Detection Kit (DiscoveRx Cat # 93-0001); prepared as described in the manufacturers assay protocol) was added to each well of the assay plate. The plates were incubated at room temperature and after 60 minutes, changes in the luminescence were read with an Envision 2104 multilabel plate reader at 0.1 seconds per well. EC50 determinations were made from an agonist-response curves analyzed with a curve fitting program using a 4-parameter logistic dose response equation.
T2 sequence (P32121 whole entry partner, one chain of several): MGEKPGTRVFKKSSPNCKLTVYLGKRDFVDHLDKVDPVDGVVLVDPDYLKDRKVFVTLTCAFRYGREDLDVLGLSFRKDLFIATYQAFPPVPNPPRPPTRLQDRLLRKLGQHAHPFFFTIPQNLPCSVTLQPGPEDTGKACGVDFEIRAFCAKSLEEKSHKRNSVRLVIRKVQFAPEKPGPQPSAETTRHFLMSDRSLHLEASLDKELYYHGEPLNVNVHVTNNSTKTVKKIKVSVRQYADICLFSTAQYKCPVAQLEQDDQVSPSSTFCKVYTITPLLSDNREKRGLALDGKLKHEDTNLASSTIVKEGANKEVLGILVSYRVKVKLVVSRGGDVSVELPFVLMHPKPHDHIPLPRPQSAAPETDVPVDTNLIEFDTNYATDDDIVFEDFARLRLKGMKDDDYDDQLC

[3] = U2OS hGPR119 beta-arrestin cells, 90 min incubation, one value per run
[4] = percent of maximal activity relative to standard GPR119 agonist (WO2005121121) at 10 microM, one value per run

| EC50 (human GPR119 [1]) | Intrinsic Activity* (cAMP) (human GPR119 [1]) | Emax (human GPR119 [1]) [%] | EC50 (human GPR119 [2]; [3]) | Intrinsic Activity* (B-arrestin) (human GPR119 [2]; [4]) | Emax (human GPR119 [2]; [4]) [%] | Emax (human GPR119 [2]; marked **: curve extrapolated to 100%, relative to standard GPR119 agonist at 10 microM) [%] | EC50 (human GPR119 [2]; curve was extrapolated to 100% to calculate the EC50 (**)) [nM] | Structure (SMILES) |
| --- | --- | --- | --- | --- | --- | --- | --- | --- |
| 40 nM and 140 nM and 48 nM and 88 nM and 82 nM | 82% and 89% and 76% and 83% | 86 | 47 nM and 121 nM | 87% and 65% |  |  |  | Cc1c(O[C@H]2CCN(C(=O)OC3(C)CC3)C[C@H]2F)ncnc1N1CCn2nccc21 (single isomer, unassigned) [Example 6] |
| 38 nM and 36 nM and 34 nM and 49 nM and 47 nM | 68% and 81% and 61% | 76 | 56 nM and 49 nM | 83% and 55% |  |  |  | Cc1c(O[C@@H]2CCN(C(=O)OC3(C)CC3)C[C@@H]2F)ncnc1N1CCn2nccc21 (single isomer, unassigned) [Example 5] |
| 32 nM and 45 nM | 28% | 31 | 53 nM |  | 38 |  |  | Cc1c(O[C@H]2CCN(C(=O)OC(C)C)C[C@H]2F)ncnc1N1CCn2nccc21 (racemic) [Example 4, Isopropyl (3R,4S)-4-{[6-(2,3-dihydro-1H-imidazo[1,2-b]pyrazol-1-yl)-5-methylpyrimidin-4-yl]oxy}-3-fluoropiperidine-1-carboxylate (racemic)] |
| 66 nM and 68 nM | 61% | 80 | 74 nM and 92 nM | 68% | 83 |  |  | Cc1c(O[C@H]2CCN(C(=O)OC3(C)CC3)C[C@H]2F)ncnc1N1CCn2nccc21 (racemic) [Example 3, 1-Methylcyclopropyl (3R,4S)-4-{[6-(2,3-dihydro-1H-imidazo[1,2-b]pyrazol-1-yl)-5-methylpyrimidin-4-yl]oxy}-3-fluoropiperidine-1-carboxylate (racemic)] |
|  | 27% | 28 |  |  |  |  |  | Cc1c(OC2CCN(C(=O)OC(C)C)CC2)ncnc1N1CCn2nccc21 [Example 1, Isopropyl 4-{[6-(2,3-dihydro-1H-imidazo[1,2-b]pyrazol-1-yl)-5-methylpyrimidin-4-yl]oxy}piperidine-1-carboxylate] |
| 117 nM and 255 nM |  | 71 |  |  |  | 100 | 313 | Cc1c(OC2CCN(C(=O)OC3(C)CC3)CC2)ncnc1N1CCn2nccc21 [Example 2, 1-Methylcyclopropyl 4-{[6-(2,3-dihydro-1H-imidazo[1,2-b]pyrazol-1-yl)-5-methylpyrimidin-4-yl]oxy}piperidine-1-carboxylate] |
